Data: PMC5983617, “Hypouricemic Effect of 2,5-Dihydroxyacetophenone, a Computational Screened Bioactive Compound from Ganoderma applanatum, on Hyperuricemic Mice” (International Journal of Molecular Sciences, 2018)

Molecular target: T1, XOD (xanthine oxidase) (Bos taurus, UniProt P80457)
T1 construct: gene XDH; oxidase form
Test: xanthine oxidation, absorbance at […] nm, microplate reader
Type: biochemical

T1 sequence (P80457 2-1332): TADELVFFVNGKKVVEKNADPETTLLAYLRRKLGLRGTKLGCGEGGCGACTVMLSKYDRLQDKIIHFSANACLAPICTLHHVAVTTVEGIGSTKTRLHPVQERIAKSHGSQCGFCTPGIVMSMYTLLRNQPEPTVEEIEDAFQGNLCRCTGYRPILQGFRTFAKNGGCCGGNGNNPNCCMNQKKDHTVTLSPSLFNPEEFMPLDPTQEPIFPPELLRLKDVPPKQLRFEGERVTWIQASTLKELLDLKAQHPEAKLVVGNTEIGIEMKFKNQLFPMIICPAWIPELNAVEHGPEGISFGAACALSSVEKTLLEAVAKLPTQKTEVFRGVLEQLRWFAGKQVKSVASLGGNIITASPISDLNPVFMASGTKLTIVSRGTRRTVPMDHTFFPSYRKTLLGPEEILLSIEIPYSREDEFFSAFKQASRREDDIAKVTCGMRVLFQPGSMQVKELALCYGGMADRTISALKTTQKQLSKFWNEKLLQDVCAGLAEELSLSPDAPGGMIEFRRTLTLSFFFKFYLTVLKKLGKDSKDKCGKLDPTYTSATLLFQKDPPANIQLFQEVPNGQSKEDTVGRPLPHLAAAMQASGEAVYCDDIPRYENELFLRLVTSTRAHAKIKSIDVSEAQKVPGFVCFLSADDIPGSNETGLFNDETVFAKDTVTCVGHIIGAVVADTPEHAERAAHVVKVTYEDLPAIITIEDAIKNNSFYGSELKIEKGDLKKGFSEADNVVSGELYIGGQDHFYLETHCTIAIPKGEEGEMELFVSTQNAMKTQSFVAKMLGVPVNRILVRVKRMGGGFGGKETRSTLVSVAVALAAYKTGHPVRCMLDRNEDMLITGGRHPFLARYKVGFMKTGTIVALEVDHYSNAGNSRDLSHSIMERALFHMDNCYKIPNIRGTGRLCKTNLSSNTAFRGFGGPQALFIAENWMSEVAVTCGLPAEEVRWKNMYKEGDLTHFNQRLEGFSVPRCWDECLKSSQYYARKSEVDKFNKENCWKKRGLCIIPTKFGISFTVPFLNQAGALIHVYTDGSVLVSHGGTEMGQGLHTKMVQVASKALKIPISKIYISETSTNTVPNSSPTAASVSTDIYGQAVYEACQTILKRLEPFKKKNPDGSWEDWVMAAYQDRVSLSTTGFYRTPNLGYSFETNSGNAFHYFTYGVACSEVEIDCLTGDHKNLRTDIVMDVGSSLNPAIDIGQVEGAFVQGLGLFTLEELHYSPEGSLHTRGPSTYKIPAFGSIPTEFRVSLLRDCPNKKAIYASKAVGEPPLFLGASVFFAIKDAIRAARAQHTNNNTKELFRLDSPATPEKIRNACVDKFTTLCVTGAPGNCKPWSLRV

**Q.** With `CC(=O)c1cc(O)ccc1O` [DHAP] as the compound, how does the IC50 read?
**A.** Its IC50 is 8.12 ± 0.27 µM.
